Results published in US20070141661A1, “Cell extract for high-functioned cell-free protein synthesis and method of preparing the extract” (priority 2003, published 2007).

Legend:
ATP in reaction solution = test: Temporal change of ATP concentration during protein synthesis reaction (cellulose thin layer chromatography, UV 260 nm); type: biochemical, wheat; details: for Concentration of ATP in system after adding sugar: 0.5 mM, within an hour after reaction, data not shown
Experimental: Next, to study the relation between decrease in concentration of ATP and the inhibition and destabilization mechanism of protein synthesis reaction, temporal changes of concentration of ATP under incubation was measured in the present and absence of glucose. Experiment was conducted on chromatography using a cellulose thin layer plate (Avicel: purchased from Funakoshi Co., Ltd) and a developing solvent of isobutyric acid:0.5 M ammonia (5:3). Using a synthesis system prepared with an extract solution treated through Amicon ultramembrane six times, protein synthesis reaction was conducted with or without adding glucose (1 mM), and to samples fractionated with time, an equivalent amount of cold ethanol was added, then supernatants obtained from centrifugation at 10,000×g were used to fractionate nucleotides on a thin layer plate. Using standard nucleotides from a conventional method as a fractionation marker, ATP was extracted from fractions, which was scraped out from fluorescent blots visualized with irradiation of ultraviolet ray, and the values of ultraviolet absorption at 260 nm were measured, thereby temporary changes of concentration of ATP in a reaction solution were determined. In an experiment where glucose was not added, as reaction proceeded, the concentration of ATP in the reaction solution was decreased (large ● in FIG. 3B) and in three hours after the reaction, decreased to around 60%. Kinetics of this decrease in concentration of ATP is well consistent with a decrease in the concentration of glucose (● in FIG. 3A). […] Though data are not shown, when protein synthesis reaction was conducted using an extract solution of 25 OD 260 nm, a decrease in the concentration of ATP was hardly shown until four hours after reaction, and along with it, the protein synthesis reaction was sustained linearly almost for four hours.

[1] = system: wheat embryo cell-free protein synthesis; test: Wheat embryo cell-free protein synthesis, batch method, 14C-leucine incorporation with DHFR mRNA; type: biochemical; details: for Effect on protein synthesis when added back in an equivalent amount to highly functionalized protein synthesis solution: filtrate or components isolated from filtrate, FIG. 1B/2B; for Time until protein synthesis reaction terminated after adding back: filtrate or filtrate-derived component added in equivalent amount; for Effect of standard sugar on protein synthesis: final concentration 0.5 mM, FIG. 2C; for Inhibition of protein synthesis, nucleotide added alone: 0.5 mM AMP or 0.25 mM GMP alone, not shown in figures
Experimental: To an embryo extract solution, components necessary for translation were added and adjusted to prepare a translation reaction solution (30 mM HEPES-KOH, pH7.8, 100 mM potassium acetate, 2.7 mM magnesium acetate, 1.2 mM ATP, 0.25 mM GTP, 0.4 mM spermidine, 16 mM phosphocreatine, 40 μg/ml creatine kinase, 4 mM dithiothreitol, each 0.3 mM 19 kinds of leucine-lacking L-amino acids, and 0.005% sodium azide). The concentration of the embryo extract solution was 40 OD 260 nm per 1 ml of translation reaction solution). To this translation reaction solution, mRNA encoding dihydrofolate reductase (DHFR) (0.32 mg/ml) and ^14C-leucine were added, and protein synthesis was conducted at 26° C. through a batch method. The amount of synthesized protein was determined by measuring radioactivity of ^14C-labeled leucine incorporated into an acid-insoluble fraction as follows: a 3MM Whatman filter was blotted with […] of the reaction solution, and the filter was dipped into an ice-cold 10% TCA (trichloroacetic acid) for an hour, and then boiled in 5% TCA solution for 10 minutes. This filter was recovered and from which TCA and water were removed using ethanol and ether (50:50 vol), dried, and then radioactivity incorporated into a heat-TCA-insoluble fraction was measured by a liquid scintillation counter (toluene scintillator).
Using these embryo extracts, following the method described in Example 1, and under a condition where the concentration of extract solution was 40 OD 260 nm, protein synthesis was conducted and their synthesis activities were compared. The activities of protein synthesis were determined by measuring radioactivities of ^14C/5 μL reaction solution, wherein ^14C had been incorporated into a heat-acid-insoluble fraction after a three hour-long reaction. As gelfiltration operation proceeded, the concentration of glucose in an extract solution was decreased, and completely corresponding to that, the activity of protein synthesis was increased, and simultaneously an extremely stabilized reaction solution for protein synthesis was produced.

[2] = system: wheat embryo cell-free protein synthesis; test: Stability of protein synthesis activity after 3 h preincubation at 26° C. without mRNA, then solution exchange; type: biochemical; details: 0.5 mM, no mRNA or 14C-leucine during incubation, FIG. 2C
Experimental: Next, destabilization of protein synthesis was further examined. Namely, samples obtained before and after Amicon ultra-centrifugal filtration as described above (but mRNA and ^14C-leucine had not been contained), were incubated for three hours at 26° C. (hereinafter, described as preincubation), and then both reaction solutions were respectively passed through Sephadex G25 spin column which had been equilibrated with a translation solution (containing amino acids, energy sources, various ions and buffer) for changing to a fresh translation solution, and after that, mRNA and ^14C-leucine were added to measure the activity of protein synthesis.
Next, to confirm the destabilization phenomena of protein synthesis system resulting from the addition glucose and preincubation, the system was incubated in the presence of 0.5 mM glucose (the system contained neither mRNA or ^14C-leucine) and the stability was examined in the same manner as explained in FIG. 1B.

O=C[C@H](O)[C@@H](O)[C@H](O)[C@H](O)CO [glucose, D-glucose]
ATP in the reaction solution after adding sugar (ATP in reaction solution; 1 mM added, in an hour, FIG. 3B): almost all ATP in the reaction solution was consumed
Effect on protein synthesis when added back in an equivalent amount to highly functionalized protein synthesis solution [1]: strong inhibitory and destabilization effects
Time until protein synthesis reaction terminated after adding back [1]: two
Effect of standard sugar on protein synthesis [1]: strong protein synthesis inhibitory effects
Protein synthesis capacity after preincubation in the presence of sugar [2]: irreversibly inactivates a protein synthesis capacity

Nc1nc2c(ncn2[C@@H]2O[C@H](COP(=O)(O)O)[C@@H](O)[C@H]2O)c(=O)[nH]1 [GMP]
Inhibition of protein synthesis, nucleotide added alone [1]: inhibition of protein synthesis was not exhibited

O=C[C@H](O)[C@@H](O)[C@H](O)[C@H](O)COP(=O)(O)O [glucose-6-phosphate]
Effect of standard sugar on protein synthesis [1]: strong protein synthesis inhibitory effects

C=C(OP(=O)(O)O)C(=O)O [Phosphoenolpyruvic acid]
Effect of standard sugar on protein synthesis [1]: no inhibitory effects on protein synthesis

OC[C@H]1O[C@@](CO)(O[C@H]2O[C@H](CO)[C@@H](O)[C@H](O)[C@H]2O)[C@@H](O)[C@@H]1O [sucrose]
Concentration of ATP in system after adding sugar (ATP in reaction solution): below the detection limit
Effect on protein synthesis when added back in an equivalent amount to highly functionalized protein synthesis solution [1]: strong inhibitory and destabilization effects
Time until protein synthesis reaction terminated after adding back [1]: two
Effect of standard sugar on protein synthesis [1]: strong protein synthesis inhibitory effects

O=C[C@H](O)[C@@H](O)[C@@H](O)[C@H](O)CO [galactose]
Concentration of ATP in system after adding sugar (ATP in reaction solution): below the detection limit
Effect of standard sugar on protein synthesis [1]: strong protein synthesis inhibitory effects

O=C[C@@H](O)[C@H](O)[C@@H](O)[C@@H](O)CO [L-glucose]
ATP remained after adding sugar (ATP in reaction solution; 1 mM added, FIG. 3B): ~50%
Effect of standard sugar on protein synthesis [1]: no inhibitory effects

Nc1ncnc2c1ncn2[C@@H]1O[C@H](COP(=O)(O)O)[C@@H](O)[C@H]1O [AMP]
Inhibition of protein synthesis, nucleotide added alone [1]: inhibition of protein synthesis was not exhibited

O=C(CO)[C@@H](O)[C@H](O)[C@H](O)CO [fructose]
Concentration of ATP in system after adding sugar (ATP in reaction solution): below the detection limit
Effect of standard sugar on protein synthesis [1]: strong protein synthesis inhibitory effects

OC[C@H]1O[C@H](OC[C@H]2O[C@H](O[C@]3(CO)O[C@H](CO)[C@@H](O)[C@@H]3O)[C@H](O)[C@@H](O)[C@@H]2O)[C@H](O)[C@@H](O)[C@H]1O [raffinose]
Effect on protein synthesis when added back in an equivalent amount to highly functionalized protein synthesis solution [1]: did not show inhibitory effects

CC(=O)C(=O)O [pyruvic acid]
Effect of standard sugar on protein synthesis [1]: no inhibitory effects on protein synthesis
